Results reported in patent publication US5405843A, “Quinoline derivatives” (Mitsui Toatsu Chemicals, Incorporated, priority 1988, dated 1995).

Legend:
[1] = system: Adriamycin resistant strain 2780 AD cells of human ovarian cancer A2780 cells; assay: Potentiating effect on incorporation of 3H-vincristine into adriamycin-resistant cancer cells; assay type: cell-based; conditions: Homo sapiens, 2780AD, 2 h, 20 nM 3H-vincristine, control = 100, read-out: 3H-vincristine accumulation; for activity at 1 µg/mL: compound 1 μg/ml; for activity at 10 µg/mL: compound 10 μg/ml
Protocol: Potentiating Effect of the Compounds on Incorporation of Anticancer Drugs into Drug-resistant Cancer Cells
Adriamycin resistant strain 2780 AD cells of human ovarian cancer A2780 cells (A. M. Rogan et al., Science 224, 994-996, 1984) were suspended at a concentration of 1×10^6 /ml in RPMI-1640 medium supplemented with 5% fetal calf serum, and 1 ml of the cancer cell suspension was dispensed into each well of a multi-well culture plate (24 wells, […] in diameter) and then incubated at 37° C. in an atmosphere of 5% CO2. After 24 hours incubation, the medium in each well was replaced by 0.5 ml of RPMI-1640 medium supplemented containing 20 nM ^3 H-vincristine (1×10^4 dpm/pmol), 5% fetal calf serum and 10 mM Hepes buffer. Five microliters of a solution of the compound to be tested, which had been dissolved in DMSO and diluted with […] (at a concentration of 1.0 microgram/ml or 10.0 micrograms/ml), was added to each well and the incubation was continued at 37° C. in 5% CO2 for 2 hours. The resultant cells were washed in cold saline-phosphate buffer. In each well was added 0.5 ml of 0.2N NaOH, and the resulting cell suspension in each well was independently transferred into a vial and then heated in a water bath at 56° C. for 30-60 minutes to dissolve the cells. After adding 4 ml of acid aquazole 2, the amount of ^3 H-vincristine incorporated into the cells was determined by a fluid scintillation counter.

[2] = system: Adriamycin resistant strain K562/ADM cells of human myeloleukemia K562 cells; assay: Potentiating effect on activity of vincristine against adriamycin-resistant cells (growth inhibition); assay type: cell-based; conditions: for effect in potentiating vincristine activity, multiples of the control: ratio to control IC50 655
Text: Potentiating Effect of the Compounds on Activity of Anticancer Drugs

[3] = system: Vincristine-resistant strain P388/VCR cells of mouse leukemia P388 cells; assay: Potentiating effect on vincristine in mice having vincristine-resistant mouse leukemia (survival); assay type: in vivo, mouse (female CDFI mice); conditions: peritoneal, once a day for 5 days; for T/C (rate of life prolongation): control = 100
[4] = compound 3 mg/kg + vincristine 100 ug/kg
[5] = compound 10 mg/kg + vincristine 100 ug/kg
[6] = compound 30 mg/kg + vincristine 100 ug/kg

SMILES | activity at 1 µg/mL [1] [%] | activity at 10 µg/mL [1] [%] | Average surviving period [3, 6] [days] | T/C (rate of life prolongation) [3, 6] [%] | other results
OC(COc1cccc2ncccc12)CN1CCN(C(c2ccccc2)c2ccccc2)CC1 (stereo not shown) [Example 1, 5-[3-(4-Diphenylmethylpiperazine-1-yl)-2-hydroxypropoxy]quinoline] | 717 | 747 | 12.8 ± 0.4 | 114 | effect in potentiating vincristine activity, multiples of the control ([2]; compound 0.3 μg/ml): 151.2; effect in potentiating vincristine activity, multiples of the control ([2]; compound 1 μg/ml): 342.1; effect in potentiating vincristine activity, multiples of the control ([2]; compound 3 μg/ml): 433.3; Average surviving period [3, 4]: 12.4 ± 0.2 days; T/C (rate of life prolongation) [3, 4]: 111%; Average surviving period [3, 5]: 12.2 ± 0.4 days; T/C (rate of life prolongation) [3, 5]: 109%
c1ccc(C(c2ccccc2)N2CCN(CCCOc3cccc4ncccc34)CC2)cc1 [Example 32, 5-[3-(4-Diphenylmethylpiperazine-1-yl)propoxy]quinoline] | 816 |  | 11.3 ± 0.4 | 110 | 
c1ccc(C(c2ccccc2)N2CCN(CCOc3cccc4ncccc34)CC2)cc1 [Example 34, 5-[2-(4-Diphenylmethylpiperazine-1-yl)ethoxy]quinoline] | 785 |  | 10.8 ± 0.8 | 98 | 
O=C(CCN1CCN(C(c2ccccc2)c2ccccc2)CC1)Nc1cccc2ncccc12 [Example 35, 5-[3-(4-Diphenylmethypiperazine-1-yl)propionamido]-quinoline] | 654 | 627 | 11.9 ± 0.7 | 116 | 
O=C(CCN1CCN(C2c3ccccc3CCc3ccccc32)CC1)Nc1cccc2ncccc12 [Example 36] | 821 | 716 | 12.6 ± 0.9 | 122 | 
OC(COc1cccc2nc(Cl)ccc12)CN1CCN(C(c2ccccc2)c2ccccc2)CC1 (stereo not shown) [Example 41, 2-Chloro-5-[3-(4-diphenylmethylpiperazine-1-yl)-2-hydroxypropoxy]quinoline] | 584 |  | 13.2 ± 1.8 | 120 | 
COc1ccc2c(OCC(O)CN3CCN(C(c4ccccc4)c4ccccc4)CC3)cccc2n1 (stereo not shown) [Example 42, 5-[3-(4-Diphenylmethylpiperazine-1-yl)-2-hydroxypropoxy]-2-methoxyquinoline] | 624 |  | 13.9 ± 2.4 | 126 | 
OC(COc1cccc2cnccc12)CN1CCN(C2c3ccccc3CCc3ccccc32)CC1 (stereo not shown) [Example 44, 5-[3-(4-(Dibenzosuberane-5-yl)piperazine-1-yl)-2-hydroxypropoxy]isoquinoline] | 636 | 934 | 13.8 ± 1.0 | 123 | Average surviving period [3, 5]: 12.5 ± 0.0 days; T/C (rate of life prolongation) [3, 5]: 112%
Cc1cc(C)c2c(OCC(O)CN3CCN(C(=O)C(c4ccccc4)c4ccccc4)CC3)cccc2n1 (stereo not drawn) [Example 53, 2,4-Dimethyl-5-[3-((α,α-diphenylacetyl)piperazine-1-yl)-2-hydroxypropoxy]quinoline] | 658 | 794 | 11.8 ± 0.8 | 111 | 
Cc1cc(C(F)(F)F)nc2cccc(OCC(O)CN3CCN(C(=O)C(c4ccccc4)c4ccccc4)CC3)c12 (stereo not drawn) [Example 55, 2-Trifluoromethyl-4-methyl-5-[3-(4-(α,α-diphenylacetyl)piperazine-1-yl)-2-hydroxypropoxy]quinoline] | 452 | 756 | 12.7 ± 0.3 | 120 | 
OC(COc1cccc2ncccc12)CN1CCN(C(c2ccc(F)cc2)c2ccc(F)cc2)CC1 (stereo not shown) [Example 57, 5-(3-[4-(Bis(4-fluorophenyl)methyl)piperazine-1-yl]-2-hydroxypropoxy)quinoline] | 572 | 732 | 13.1 ± 0.4 | 124 | 
OC(COc1cccc2ncccc12)CN1CCN(C(c2ccccc2)c2ccc(Cl)cc2)CC1 (stereo not shown) [Example 58, 5-(3-[4-((4-Chlorophenyl)-phenylmethyl)piperazine-1-yl]-2-hydroxypropoxy)quinoline] | 619 | 843 | 13.8 ± 1.8 | 130 | 
COc1ccc(C(c2ccc(OC)cc2)N2CCN(CC(O)COc3cccc4ncccc34)CC2)cc1 (stereo not shown) [Example 59, 5-(3-[4-(Bis-(4-methoxyphenyl)methyl)piperazine-1-yl] -2-hydroxypropoxy)quinoline] | 561 | 685 | 13.2 ± 1.2 | 125 | 
O=C(N1CCN(CC(O)COc2cccc3ncccc23)CC1)N1c2ccccc2CCc2ccccc21 (stereo not shown) [Example 60, 5-[3-(4-(Iminodibenzyl-5-carbonyl)piperazine-1-yl)-2-hydroxypropoxy]quinoline] | 643 | 760 | 12.4 ± 0.7 | 117 | 
Cc1cc(C)c2c(OCC(O)CN3CCN(C(=O)N4c5ccccc5CCc5ccccc54)CC3)cccc2n1 (stereo not shown) [Example 61, 2,4-Dimethyl-5-[3-(4-(iminodibenzyl-5-carbonyl)piperazine-1-yl)-2-hydroxypropoxy]quinoline] | 519 | 602 | 11.5 ± 0.3 | 108 | 
OC(COc1cccc2ncccc12)CN1CCC(C2(O)c3ccccc3CCc3ccccc32)CC1 (stereo not shown) [Example 78, 5-[2-Hyroxy-3-(4-(5-hydroxydibenzosuberane-5-yl)piperidine-1-yl)propoxy]quinoline] | 943 |  | 12.8 ± 0.8 | 120 | 
OC(COc1cccc2ncccc12)CN1CCC(=C2c3ccccc3CCc3ccccc32)CC1 (stereo not shown) [Example 80, 5-[3-(4-(Dibenzosuberane-5-ylidene)piperidine-1-yl)-2-hydroxypropoxy]quinoline] | 942 |  | 14.3 ± 0.6 | 134 | 
OC(COc1cccc2ncccc12)CN1CCC(C2c3ccccc3CCc3ccccc32)CC1 (stereo not shown) [Example 81, 5-[3-(4-(Dibenzosuberane-5-yl)piperidine-1-yl)-2-hydroxypropoxy]quinoline] | 992 |  | 13.2 ± 0.9 | 123 | 
CN(CCCN1c2ccccc2CCc2ccccc21)CC(O)COc1cccc2ncccc12 (stereo not shown) [Example 82, 5-[3-(N-Methyl-N-(3-(5H-10,11-dihydrodibenzo(b,f)-azepin-5-yl)propyl)amino]-2-hydroxypropoxy]quinoline] | 667 |  | 11.2 ± 1.4 | 105 | 
c1ccc2c(c1)CCc1ccccc1C2N1CCN(CCCOc2cccc3ncccc23)CC1 [Example 83, 5-[3-(4-(Dibenzosuberane-5-yl)piperazine-1-yl)propoxy]quinoline] | 957 |  | 13.5 ± 0.5 | 126 | 
c1ccc(C(=C2CCN(CCCOc3cccc4ncccc34)CC2)c2ccccc2)cc1 [Example 84, 5-[3-(4-(Diphenylmethylene)piperidine-1-yl)propoxy]quinoline] | 159 | 878 | 13.0 ± 0.7 | 121 | 
CC[C@]1(O)C[C@H]2CN(CCc3c([nH]c4ccccc34)[C@@](C(=O)OC)(c3cc4c(cc3OC)N(C=O)[C@H]3[C@@](O)(C(=O)OC)[C@H](OC(C)=O)[C@]5(CC)C=CCN6CC[C@]43[C@@H]65)C2)C1 [Vincristine, vincristine, reference compound] |  |  |  |  | IC50 ([2]; Homo sapiens, K562, read-out: IC50 (vincristine concentration at which 50% of the growth was inhibited)): 0.655 µg/mL
